How the values were obtained:
[1] = Inhibition of hypoxia-induced HIF1alpha/P300-CBP interaction mediated gene transcriptional activity in human HeLa cells co-transfected with luciferase reporter plasmid containing HRE and pRL-CMV vector incubated for 12 hrs under hypoxic condition by HRE-dependent dual luciferase reporter gene assay; type: cell-based
DMS-114 = test: Antiproliferative activity against human DMS-114 cells assessed as reduction in cell proliferation measured after 2 days by MTT assay; type: functional, cell-based; settings: DMS-114, 48 h
HeLa [2] = test: Cytotoxicity against human HeLa cells co-transfected with luciferase reporter plasmid containing HRE and pRL-CMV vector incubated for 12 hrs under hypoxic condition by MTT assay; type: cell-based
HCT-116 = test: Antiproliferative activity against human HCT-116 cells assessed as reduction in cell proliferation measured after 2 days by MTT assay; type: functional, cell-based; settings: HCT-116, 48 h
HeLa [3] = test: Antiproliferative activity against human HeLa cells assessed as reduction in cell proliferation measured after 48 hrs by MTT assay; type: functional, cell-based

Compound	IC50 [1] [µM]	IC50 (DMS-114) [µM]	IC50 (HeLa [2]) [µM]	IC50 (HCT-116) [µM]	IC50 (HeLa [3]) [µM]
OCc1ccc(-c2nn(Cc3ccccc3)c3ccccc23)o1	1	–	–	–	–
CC(C)CCN1C/C=C/CCN(CCCc2ccccc2)C(=O)CN[C@@H](C)C(=O)N[C@@H](CC(C)C)C1=O	13.7	48.9	> 50	33.3	71.2
CC(C)CCN1C/C=C/CN(CCCc2ccccc2)C(=O)CN[C@@H](C)C(=O)N[C@@H](CC(C)C)C1=O	16.3	32.2	> 50	25.1	97.1
CC(C)CCC(=O)N1C/C=C/CN(CCC(C)C)C(=O)[C@H](CC(C)C)NC(=O)[C@H](C)NC(=O)C1	> 33	> 90	> 50	> 90	> 100
CC(C)CCC(=O)N1CCCCN(CCC(C)C)C(=O)[C@H](CC(C)C)NC(=O)[C@H](C)NC(=O)C1	> 33	> 90	> 50	83.8	> 100
CC(C)CCN1C/C=C/CN(CCCc2ccccc2)C(=O)CN2CCC[C@H]2C(=O)N[C@@H](CC(C)C)C1=O	13.8	20.9	> 50	17.1	54
CC(C)CCN1CCCCCN(CCCc2ccccc2)C(=O)CN[C@@H](C)C(=O)N[C@@H](CC(C)C)C1=O	8.7	49	> 50	34.3	55.5
CC(C)CCN1CCCCN(CCCc2ccccc2)C(=O)CN2CCC[C@H]2C(=O)N[C@@H](CC(C)C)C1=O	9.5	17.3	> 50	12.3	66.4
CC(C)CCN1CCCCN(CCCc2ccccc2)C(=O)CN[C@@H](C)C(=O)N[C@@H](CC(C)C)C1=O	9.96	45	> 50	34.8	58.9

— ChEMBL document CHEMBL4680325, “Design and synthesis of 14 and 15-membered macrocyclic scaffolds exhibiting inhibitory activities of hypoxia-inducible factor 1α” (Bioorg Med Chem, 2021)
